Legend:
Test in all cases: Transcription accelerating activity through RARs (PLAP reporter in COS-1 cells)
Format in all cases: cell-based
Conditions in all cases: relative to ED30 of all-trans retinoic acid = 1, ED30 = concentration giving 30% of activity induced by 1 μM all-trans retinoic acid
[1] = biological target: T1, RAR-γ (Homo sapiens, UniProt P13631)
T1 construct: expressed in transfected cells; host or cells: COS-1 (African green monkey kidney cells), transient lipofection
T1 sequence (P13631 1-454): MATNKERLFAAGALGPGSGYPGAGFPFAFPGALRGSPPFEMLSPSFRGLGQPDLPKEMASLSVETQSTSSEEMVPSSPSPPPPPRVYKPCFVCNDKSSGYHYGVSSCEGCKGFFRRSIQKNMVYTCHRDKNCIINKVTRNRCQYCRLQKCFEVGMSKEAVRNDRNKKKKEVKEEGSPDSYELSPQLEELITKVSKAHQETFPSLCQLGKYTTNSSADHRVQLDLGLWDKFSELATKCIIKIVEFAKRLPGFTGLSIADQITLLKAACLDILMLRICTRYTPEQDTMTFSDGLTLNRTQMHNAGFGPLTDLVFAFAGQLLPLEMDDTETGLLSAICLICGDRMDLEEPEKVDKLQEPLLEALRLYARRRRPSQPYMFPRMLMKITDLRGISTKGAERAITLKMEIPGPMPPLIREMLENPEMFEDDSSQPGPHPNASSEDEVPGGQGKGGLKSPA
Source text: (§1) Measurement of the Activities of Accelerating Trans-cription Through RARs
(§2) Human RAR Expression Vectors and secretory alkaline phosphatase (PLAP) gene vectors (PLAP vectors) containing in a state integrated into the upstream a competent sequence whose expression is […] through binding with RAR depending on a ligand were temporarily transferred into COS-1 (African green monkey kidney cells), and the PLAP which had been produced depending on a ligand and secreted into a culture medium was analyzed by the chemiluminescence method to determine the transcription-accelerating activity of each compound. Further, the selectivity of each compound among RARs was determined by comparing the transcription accelerating activities of the compound for the receptors with each other.
(§3) On a 60-mm culture dish were scattered 2.5×10^4 COS-1 cells. Four days after, human RAR α, β and γ expression vectors and PLAP vectors were transferred into the cells each in an amount of 4 μg by the lipofection method. Another day after, the resulting cells were recovered, and put on a 96-well culture plate in an amount of 2×10^4 per unit well. Four hours after, the cells were put on a medium containing charcoal-treated fetal bovine serum, followed by the addition of a dilution of all-trans retinoic acid or a test compound. After the lapse of 36 hours, the supernatant was recovered and the resulting samples were treated at 65° C. for 10 minutes to eliminate the non-specific activity. 15 μl of each sample was mixed with 60 μl of a 28 mM sodium carbonate buffer(pH10), followed by the addition of 75 μl of Smilight (trade name, a product of Sumitomo Metal Industries, Ltd., substrate for chemiluminescence). The resulting mixture was reacted at 37° C. for 30 minutes and the intensity of luminescence was determined. The compounds which will be described below induced the transcription activities of RARs dependently on the concentration.

[2] = biological target: T2, RAR-β (Homo sapiens, UniProt P10826)
T2 construct: expressed in transfected cells; host or cells: COS-1 (African green monkey kidney cells), transient lipofection
T2 sequence (P10826 1-455): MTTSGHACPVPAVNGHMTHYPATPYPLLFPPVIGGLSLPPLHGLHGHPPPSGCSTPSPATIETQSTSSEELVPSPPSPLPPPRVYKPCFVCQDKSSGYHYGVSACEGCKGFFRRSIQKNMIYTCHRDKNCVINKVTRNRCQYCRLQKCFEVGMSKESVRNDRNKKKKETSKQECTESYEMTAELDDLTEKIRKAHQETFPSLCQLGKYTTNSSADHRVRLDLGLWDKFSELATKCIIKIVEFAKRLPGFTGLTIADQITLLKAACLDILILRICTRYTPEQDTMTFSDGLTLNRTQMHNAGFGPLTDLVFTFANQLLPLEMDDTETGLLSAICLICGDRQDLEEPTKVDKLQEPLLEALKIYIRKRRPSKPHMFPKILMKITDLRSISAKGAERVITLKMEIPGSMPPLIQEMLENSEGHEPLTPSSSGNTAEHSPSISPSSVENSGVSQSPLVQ
Source text: as §1, §2, §3

[3] = biological target: T3, RAR-α (Homo sapiens, UniProt P10276)
T3 construct: expressed in transfected cells; host or cells: COS-1 (African green monkey kidney cells), transient lipofection
T3 sequence (P10276 1-462): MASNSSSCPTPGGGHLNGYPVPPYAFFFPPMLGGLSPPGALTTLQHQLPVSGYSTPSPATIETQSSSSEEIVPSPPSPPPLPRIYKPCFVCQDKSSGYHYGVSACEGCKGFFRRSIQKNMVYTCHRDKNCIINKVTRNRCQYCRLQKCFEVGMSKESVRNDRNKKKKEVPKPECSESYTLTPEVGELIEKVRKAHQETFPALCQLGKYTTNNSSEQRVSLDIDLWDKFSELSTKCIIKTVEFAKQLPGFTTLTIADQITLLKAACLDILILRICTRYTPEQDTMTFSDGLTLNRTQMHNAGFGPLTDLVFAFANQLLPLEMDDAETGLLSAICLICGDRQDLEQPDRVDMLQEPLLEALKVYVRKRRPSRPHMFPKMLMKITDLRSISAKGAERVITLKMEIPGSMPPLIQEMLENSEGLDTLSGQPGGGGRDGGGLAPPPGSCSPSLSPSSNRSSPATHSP
Source text: as §1, §2, §3

Row | SMILES | Transcription accelerating activity Relative ED30 RAR-γ [1] | Transcription accelerating activity Relative ED30 RAR-β [2] | Transcription accelerating activity Relative ED30 RAR-α [3]
1 | Cc1ccc(C)c2oc(-c3ccc(-c4ccc(C(=O)O)cc4)[nH]3)cc12 [Example 13, 4-{2-[5-(4,7-Dimethylbenzofuran-2-yl)pyrrolyl]}benzoic acid] | 48 | 13 | 0.4
2 | CCCc1cccc2cc(-c3ccc(-c4ccc(C(=O)O)cc4)[nH]3)oc12 [Example 16, 4-{2-[5-(7-n-Propylbenzofuran-2-yl)pyrrolyl]}benzoic acid] | 410 | 74 | 1.0
3 | Cc1ccc(F)c2cc(-c3ccc(-c4ccc(C(=O)O)cc4)[nH]3)oc12 [Example 110, 4-{2-[5-(4-Fluoro-7-methylbenzofuran-2-yl)pyrrolyl]}benzoic acid] | 790 | 210 | 0.47
4 | Cc1c(-c2ccc(-c3ccc(C(=O)O)cc3)[nH]2)oc2c(Cl)ccc(Cl)c12 [Example 46, 4-{2-[5-(4,7-Dichloro-3-methylbenzofuran-2-yl)pyrrolyl]}benzoic acid] | 240 | 14 | 0.63
5 | Cc1cccc2ccc(-c3ccc(-c4ccc(C(=O)O)cc4)[nH]3)cc12 [Example 6, 4-{2-[5-(8-Methylnaphthalen-2-yl)pyrrolyl]}benzoic acid] | 240 | 110 | 0.9
6 | COc1ccc2ccc(-c3ccc(-c4ccc(C(=O)O)cc4)[nH]3)cc2c1C [Example 4, 4-{2-[5-(7-Methoxy-8-methylnaphthalen-2-yl)pyrrolyl]}benzoic acid] | — (—; >4000) | — (—; >4000) | 49
7 | CC1=CCOc2ccc(-c3ccc(-c4ccc(C(=O)O)cc4)[nH]3)cc21 [Example 133, 4-{2-[5-(4-Methyl-2H-chromen-6-yl)pyrrolyl]}benzoic acid] | 780 | 250 | 3.2
8 | CCc1ccc(OC)c2ccc(-c3ccc(-c4ccc(C(=O)O)cc4)[nH]3)cc12 [Example 90, 4-{2-[5-(5-Methoxy-8-ethylnaphthalen-2-yl)pyrrolyl]}benzoic acid] | 1400 | 450 | 3.1
9 | CCc1ccc(Cl)c2cc(-c3ccc(-c4ccc(C(=O)O)cc4)[nH]3)oc12 [Example 20, 4-{2-[5-(4-Chloro-7-ethylbenzofuran-2-yl)pyrrolyl]}benzoic acid] | 300 | 59 | 0.66

From patent US6358995B1, “Carboxylic acid derivatives having fused rings” (Eisai Co., Ltd., priority 1996, dated 2002)
